Data taken from patent US6685951B2, “Administration of dihydroergotamine as a sublingual spray or aerosol for the treatment of migraine” (R. T. Alamo Ventures I, Inc., priority 2001, dated 2004).

Experiments:
[1] = system: migraine; conditions: in vivo; cited from earlier work
[2] = system: migraine symptoms; assay: Example 3: sublingual DHE tablet vs subcutaneous injection of DHE in migraine patients; type: in vivo; conditions: 1 mg sublingual tablet vs 1 mg subcutaneous injection
Description: This example compares the effect on migraine of subcutaneous injection vs. the sublingual administration of the present invention.
This experiment utilizes three test groups of patients. All of the patients are suffering from migraines. One group receives a 1 mg dose of sublingual DHE tablet and a placebo subcutaneous injection, the second group receives a 1 mg subcutaneous injection of a pharmaceutical formulation comprising DHE and a placebo sublingual tablet, and the third group receives a placebo subcutaneous injection and a placebo sublingual tablet. Results are compared between the active sublingual test group and the active subcutaneous test group.

[3] = system: migraine symptoms; assay: Example 4: sublingual DHE vs nasal administration of DHE in migraine patients; type: in vivo; conditions: 2 mg sublingual vs 2 mg nasally administered
Description: This example compares the effect on migraine of nasal administration of DHE vs. the sublingual administration of the present invention.
This experiment utilizes three test groups of patients. All of the patients are suffering from migraines. One group receives a 2 mg dose of sublingual DHE and placebo intranasal spray, the second group receives a 2 mg nasally administered dose of a pharmaceutical formulation comprising DHE and a placebo sublingual tablet, the third group receives a placebo sublingual tablet and a placebo intranasal spray. Results are compared between the active sublingual test group and the active nasal test group.

[4] = Example 5: plasma uptake of DHE, sublingual tablet vs subcutaneous administration; type: in vivo, patient; conditions: plasma monitored 24 hours
Description: This example evaluates the uptake in sublingual vs. subcutaneous administration of DHE.
In this experiment one patient suffering from migraine pain is administered a migraine ameliorating dose of DHE as a sublingual tablet formulated as described in Example 1. The plasma concentration of DHE is monitored for a time of 24 hours after the administration. […] The rate and amount of DHE in the plasma is compared to that obtained by subcutaneous administration.

[5] = system: migraine symptoms; assay: Example 2: sublingual DHE vs placebo in patients suffering from migraines; type: in vivo; conditions: 1 mg sublingual DHE
Description: This experiment utilizes two test groups of patients. All of the patients are suffering from migraines. One group receives a 1 mg dose of sublingual DHE, the other group receives a placebo. The DHE sublingual formulation is placed by the patients or medical professional under the tongue. The DHE sublingual formulation is allowed to dissolve fully. If the symptoms are not relieved within 20 to 40 minutes, a second dose is administered. Results are compared between the test group and the placebo group. […] The difference in amelioration of migraine symptoms are statistically significant.

[6] = oral forms of DHE; cited from earlier work
[7] = Example 6: two-way crossover, DHE tablet under the tongue vs orally with water; type: in vivo, healthy normal volunteers; conditions: tablet under the tongue vs orally with about 240 ml water; blood over 24 hour
Description: Each volunteer is administered DHE sublingual tablet manufactured as defined in this patent. In one treatment the tablet is administered under the tongue and in the crossover treatment the subject is administered the tablet orally with about 240 ml of water. Blood samples are taken serially over a 24 hour duration post administration and assayed for unchanged DHE and the principle 8-hydroxy DHE metabolite.

[8] = Plasma DHE after sublingual administration of DHE 45 dosing solution in a monkey; type: in vivo, Cynomogolius monkey
Description: In this example the intrinsic permeability of DHE was shown after it was sublingually administered DHE in a Cynomogolius monkey.
The test DHE was obtained from as DHE 45® Injection, USP (manufactured by Novartis). Specific information follows.
(§1) Prior to dose administration, the animal was restrained and anesthetized with an appropriate amount of ketamine. Using a calibrated pipette, 0.5 mL of dosing solution was placed under the animal's tongue immediately after swabbing excess saliva with a gauze pad (the gauze pad will be discarded). The animal's head was restrained for approximately 5 minutes in such a manner to minimize any loss of the dose solution through the animal's mouth or down the animal's throat.
Blood (approximately 1 mL) was collected from each animal prior to dosing (predose) and at 0.1, 0.2, 0.3, 0.4, 0.5, 1, 2, 4, 8, and 12 hours postdose. Blood was collected via a femoral vein into sodium-heparinized tubes.
Blood was maintained on wet ice, in chilled Kryoracks, or at approximately 5° C. prior to centrifugation to obtain plasma. Centrifugation was begin within 30 minutes of collection. The blood samples were centrifuged at approximately 5° C. for approximately 10 minutes at approximately 4,000 rpm. Plasma was harvested and stored on dry ice or at approximately −70° C. prior to shipment.
The plasma was assayed for DHE using standard techniques.

[9] = Mortality/moribundity checks and cageside observation after sublingual DHE; type: in vivo, Cynomogolius monkey; conditions: sublingual 0.5 mL of 1.0 mg/mL; throughout the study
Description: as §1
Mortality and moribundity checks were done twice daily (a.m. and p.m.). Cageside observation for general health and appearance was done once daily.

Compound	efficacy in the treatment of migraine [1]	amelioration of migraine symptoms, sublingual vs subcutaneous group [2]	amelioration of migraine symptoms, sublingual vs nasal group [3]	time to maximum plasma concentration of DHE [4]	amelioration of migraine symptoms compared to placebo control group [5]	active unchanged drug that reaches the blood stream [6]	levels of active DHE, sublingual higher than oral [7]	half-life ([8]; cynomolgus, monkey, in vivo)	Tmax ([8]; cynomolgus, monkey, in vivo, 0.5 mg, plasma, sublingual 0.5 mL of 1.0 mg/mL, read-out: Tmax (time point of maximum concentration) (converted))	detection of DHE in the blood plasma after sublingual administration ([8]; sublingual)	observations for general health and appearance, mortality and moribundity [9]
CN(C)CCc1c[nH]c2ccc(Cn3cncn3)cc12 [rizatriptan]	60-70%	–	–	–	–	–	–	–	–	–	–
CN1C[C@H](C(=O)N[C@]2(C)O[C@@]3(O)[C@@H]4CCCN4C(=O)[C@H](Cc4ccccc4)N3C2=O)C[C@@H]2c3cccc4[nH]cc(c34)C[C@H]21 [DHE, Dihydroergotamine]	–	equivalent amelioration of migraine symptoms	equivalent amelioration of migraine symptoms	30 to 60 min	greater amelioration of migraine symptoms	2-10%	at least 200%	2.2 h	5 min	rapid detection of DHE in the blood plasma	No unusual observations
